Experimental findings from patent publication US20240148821A1, “PHARMACEUTICAL USE OF CYCLIC PEPTIDE COMPOUND” (CHUGAI SEIYAKU KABUSHIKI KAISHA, priority 2021, published 2024) are described below.

Bridge positions count the residues as written; N and C are the ends. Square brackets hold non-standard residues; d marks the D form. Peptide text beside a SMILES is read from it. * marks the point of attachment. hPhe(3-Cl-4-CF3) = N[C@@H](CCc1ccc(C(F)(F)F)c(Cl)c1)C(=O)O; hPhe(3-F,4-CF3) = N[C@@H](CCc1ccc(C(F)(F)F)c(F)c1)C(=O)O; NMePhe(4-CF3) = CN[C@@H](Cc1ccc(C(F)(F)F)cc1)C(=O)O; NMeAbu(4,4,4-F3) = CN[C@@H](CC(F)(F)F)C(=O)O; NMePhe(4-Me) = CN[C@@H](Cc1ccc(C)cc1)C(=O)O; NMePhe(3-F) = CN[C@@H](Cc1cccc(F)c1)C(=O)O; NMeMet(O2) = CN[C@@H](CCS(C)(=O)=O)C(=O)O; Phe(3-I) = N[C@@H](Cc1cccc(I)c1)C(=O)O; NMeCha = CN[C@@H](CC1CCCCC1)C(=O)O; NMeCba = CN[C@@H](CC1CCC1)C(=O)O; NMeChg = CN[C@H](C(=O)O)C1CCCCC1; N(CH2CH2)2CF2 = FC1(F)CCN(*)CC1; NMeD = CN[C@@H](CC(=O)O)C(=O)O; NMeL = CN[C@@H](CC(C)C)C(=O)O; NMeV = CN[C@H](C(=O)O)C(C)C; d(β3hA) = C[C@@H](N)CC(=O)O; Pip = O=C(O)[C@@H]1CCCCN1; Ac6c = NC1(C(=O)O)CCCCC1; NMeA = CN[C@@H](C)C(=O)O; Nle = CCCC[C@H](N)C(=O)O; Piperidide = C1CCN(*)CC1; Pyrrolidide = C1CCN(*)C1; Ac5c = NC1(C(=O)O)CCCC1; Aze = O=C(O)[C@@H]1CCN1; Cyclobutyl = C1CC(*)C1; βAla = NCCC(=O)O; Sar = CNCC(=O)O

This experiment has as its system Human pancreatic cancer cell line AsPC-1 (G12D mutation Kras). Description: AsPC-1 cell growth inhibition (AsPC-1 CGI). Format: cell-based. The conditions noted are these: read-out: AsPC-1 cell growth inhibition, 50% growth inhibitory concentration (IC50 value); 96 hours, CellTiter-Glo, values classified in ranges.
Experimental: Test compounds were serially dilated with dimethyl sulfoxide, and 200 nL was then dispensed to a U-bottom 96-well plate using Labcyte Echo. […] The cell suspension was dispensed to a. plate containing a test compound at 100 μL per well and incubated at 37° C. in a 5% carbon dioxide gas incubator. 96 hours later, 80 μL of CellTiter-Glo (Promega) was added to each well and fluorescence was measured.
Take `CC[C@H](C)[C@@H]1NC(=O)[C@@H]2CCCCN2C(=O)C[C@@H](C)NC(=O)[C@H](CC(C)C)N(C)C(=O)C2(CCCC2)NC(=O)[C@H](CC(C)C)N(C)C(=O)[C@H](CCc2ccc(C(F)(F)F)c(Cl)c2)NC(=O)CN(C)C(=O)[C@H](CC2CCCCC2)N(C)C(=O)CN(C)C(=O)CN(C)C1=O` [Compound 213] (cyclo([Ac5c][NMeL][d(β3hA)][Pip]I[Sar][Sar][NMeCha][Sar][hPhe(3-Cl-4-CF3)][NMeL])): the IC50 is over 500 nM.
With `CC[C@H](C)[C@@H]1NC(=O)[C@H](CC(C)C)N(C)C(=O)C[C@@H](C(=O)N(C)C)N(C)C(=O)[C@H](C(C)C)N(C)C(=O)C2(CCCC2)NC(=O)[C@H](CC(=O)N2CCC(F)(F)CC2)N(C)C(=O)[C@H](CCc2ccc(C(F)(F)F)c(Cl)c2)NC(=O)CN(C)C(=O)[C@H](CC2CCCCC2)N(C)C(=O)CN(C)C(=O)CN(C)C1=O` [Compound 218] ([NMeL]I[Sar][Sar][NMeCha][Sar][hPhe(3-Cl-4-CF3)][NMeD](N(CH2CH2)2CF2)[Ac5c][NMeV][NMeD]-NMe2; lactam N-11) the figure was over 500 nM.
The value for `CC(C)C[C@H]1C(=O)N[C@@H](COC2CCC2)C(=O)N(C)CC(=O)N(C)CC(=O)N(C)[C@@H](CC2CCCCC2)C(=O)N(C)CC(=O)N[C@@H](CCc2ccc(C(F)(F)F)c(Cl)c2)C(=O)N2CCC[C@H]2C(=O)NC2(CCCC2)C(=O)N(C)[C@@H](C2CCCCC2)C(=O)N(C)[C@H](C(=O)N2CCCCC2)CC(=O)N1C` [Compound 226] ([NMeL]S(Cyclobutyl)[Sar][Sar][NMeCha][Sar][hPhe(3-Cl-4-CF3)]P[Ac5c][NMeChg][NMeD]-Piperidide; lactam N-11) was over 500 nM; that for `CC[C@H](C)[C@@H]1NC(=O)[C@H](CC2CCC2)N(C)C(=O)C[C@@H](C)NC(=O)[C@H](C(C)C)N(C)C(=O)C2(CCCC2)NC(=O)[C@@H]2CCCN2C(=O)[C@H](CCc2ccc(C(F)(F)F)c(Cl)c2)NC(=O)CN(C)C(=O)[C@H](CC2CCCCC2)N(C)C(=O)CN(C)C(=O)CN(C)C1=O` [Compound 230] (cyclo([Ac5c][NMeV][d(β3hA)][NMeCba]I[Sar][Sar][NMeCha][Sar][hPhe(3-Cl-4-CF3)]P)) was over 500 nM.
With `CC[C@H](C)[C@@H]1NC(=O)[C@H](CC(C)C)N(C)C(=O)C[C@@H](C)NC(=O)[C@H](CC(C)C)N(C)C(=O)C2(CCCCC2)NC(=O)[C@@H]2CCCN2C(=O)[C@H](CCc2ccc(C(F)(F)F)c(F)c2)NC(=O)CN(C)C(=O)[C@H](CC2CCCCC2)N(C)C(=O)CN(C)C(=O)CN(C)C1=O` [Compound 231] (cyclo([Ac6c][NMeL][d(β3hA)][NMeL]I[Sar][Sar][NMeCha][Sar][hPhe(3-F,4-CF3)]P)) the figure was over 500 nM; with `CCCC[C@@H]1NC(=O)[C@H](Cc2cccc(I)c2)NC(=O)CN(C)C(=O)[C@H](Cc2ccc(C)cc2)N(C)C(=O)CN(C)C(=O)CN(C)C(=O)[C@H]([C@@H](C)CC)NC(=O)[C@H](CC(C)C)N(C)C(=O)C[C@@H](C(=O)N2CCCCC2)N(C)C(=O)[C@H](CC(C)C)NC(=O)[C@H](C)N(C)C1=O` [Compound 232] ([NMeL]I[Sar][Sar][NMePhe(4-Me)][Sar][Phe(3-I)][Nle][NMeA]L[NMeD]-Piperidide; lactam N-11), over 500 nM.
In the case of `CC[C@H](C)[C@@H]1NC(=O)[C@H](CC(C)C)N(C)C(=O)C[C@@H](C(=O)N2CCCCC2)N(C)C(=O)[C@H](C(C)C)N(C)C(=O)C2(CCCC2)NC(=O)[C@@H]2CCCN2C(=O)[C@H](CCc2ccc(C(F)(F)F)c(Cl)c2)NC(=O)CN(C)C(=O)[C@H](CCS(C)(=O)=O)N(C)C(=O)[C@@H]2CCN2C(=O)[C@H](C)N(C)C1=O` [Compound 235] ([NMeL]I[NMeA][Aze][NMeMet(O2)][Sar][hPhe(3-Cl-4-CF3)]P[Ac5c][NMeV][NMeD]-Piperidide; lactam N-11), the IC50 was over 500 nM.
For `CC[C@H](C)[C@@H]1NC(=O)CCNC(=O)[C@H](Cc2cccc(F)c2)N(C)C(=O)[C@H](C2CCCCC2)N(C)C(=O)C2(CCCC2)NC(=O)[C@@H]2CCCN2C(=O)[C@H](CCc2ccc(C(F)(F)F)c(Cl)c2)NC(=O)CN(C)C(=O)[C@H](CC2CCCCC2)N(C)C(=O)CN(C)C(=O)CN(C)C1=O` [Compound 237] (cyclo([Ac5c][NMeChg][NMePhe(3-F)][βAla]I[Sar][Sar][NMeCha][Sar][hPhe(3-Cl-4-CF3)]P)), the IC50 was over 500 nM.
As to `CC[C@H](C)[C@@H]1NC(=O)[C@H](CC(F)(F)F)N(C)C(=O)C[C@@H](C(=O)N2CCCC2)N(C)C(=O)[C@H](C2CCCCC2)N(C)C(=O)C2(CCCC2)NC(=O)[C@@H]2CCCN2C(=O)[C@H](CCc2ccc(C(F)(F)F)c(Cl)c2)NC(=O)CN(C)C(=O)[C@H](Cc2ccc(C(F)(F)F)cc2)N(C)C(=O)CN(C)C(=O)CN(C)C1=O` [Compound 245] ([NMeAbu(4,4,4-F3)]I[Sar][Sar][NMePhe(4-CF3)][Sar][hPhe(3-Cl-4-CF3)]P[Ac5c][NMeChg][NMeD]-Pyrrolidide; lactam N-11), the IC50 was at most 20 nM.
